Measured values from US4963553A, “4-[(substituted) alkylcarbonyl]-4,5-dihydro- and -4,5,6,7-tetrahydro-7-[(substituted)phenyl]pyrazolo[1,5-a]pyrimidines” (American Cyanamid Co., priority 1988, dated 1990).
Where a name gives a salt, the structure may show the parent alone.

test system: Spontaneously Hypertensive Rats; assay: Hypotensive activity: mean arterial blood pressure in spontaneously hypertensive rats; type: in vivo, rat (Okamoto strain, male); conditions: SHR, gavage, 100 mg/kg or less, two doses 24 h apart, measured at 28 hours; average MABP of rats used 160±1.5 mm
Experimental: The novel compounds of the invention are active hypotensive agents at nontoxic doses when administered to mammals. These compounds were tested for hypotensive activity by the method of P. S. Chan and D. W. Poorvin, Clinical and Experimental Hypertension, (6), 817-830 (1979). Male, 16 week old, spontaneously hypertensive rats of the Okamoto strain (Taconic Farms, Germantown, N.Y.) having an average means arterial blood pressure of 160±1.5 mm of mercury are used in the test. A rat is dosed by gavage with a test compound, suspended in 2% pre-boiled starch at a concentration of 50 mg/ml, at a dose of 100 mg/kg of body weight or less, with 0.9% sodium chloride loading at a dose of 25 ml/kg of body weight. A second identical dose of the test compound, without sodium chloride loading is given 24 hours later. At 28 hours after the initial dose the mean arterial blood pressure is measured by the method of Chan and Poorvin vide supra.

Compound	MABP/mmHg (mean arterial blood pressure)
N#Cc1cnn2c1N(C(=O)CN1CCN(c3ccccc3)CC1)CC=C2c1cccc(C(F)(F)F)c1 [Example 25, 4,5-Dihydro-4-[(4-phenyl-1-piperazinyl)acetyl]-7-[3-(trifluoromethyl)phenyl]pyrazolo[1,5-a]pyrimidine-3-carbonitrile]	137 mmHg
N#Cc1cnn2c1N(C(=O)CN1CCN(c3cccc(Cl)c3)CC1)CC=C2c1cccc(C(F)(F)F)c1 [Example 26, 4-[[4-(3-Chlorophenyl)-1-piperazinyl]acetyl]-4,5-dihydro-7-[3-(trifluoromethyl)phenyl]pyrazolo[1,5-a]pyrimidine-3-carbonitrile]	124 mmHg
N#Cc1cnn2c1N(C(=O)CN1CCN(c3ncccn3)CC1)CC=C2c1cccc(C(F)(F)F)c1 [Example 28, 4,5-Dihydro-4-[[4-(2-pyrimidinyl)-1-piperazinyl]acetyl]-7-[3-(trifluoromethyl)phenyl]pyrazolo[1,5-a]pyrimidine-3-carbonitrile]	127 mmHg
N#Cc1cnn2c1N(C(=O)CN1CCN(c3ccc(F)cc3)CC1)CC=C2c1cccc(C(F)(F)F)c1 [Example 31, 4-[[4-(4-Fluorophenyl)-1-piperazinyl]acetyl]-4,5-dihydro-7-[3-(trifluoromethyl)phenyl]pyrazolo[1,5-a]pyrimidine-3-carbonitrile]	130 mmHg
N#Cc1cnn2c1N(C(=O)CCN1CCN(Cc3ccc(Cl)cc3)CC1)CC=C2c1cccc(C(F)(F)F)c1 [Example 35, 4-[3-[4-[(Chlorophenyl)methyl]-1-piperazinyl]-1-oxopropyl]-4,5-dihydro-7-[3-(trifluoromethyl)phenyl]pyrazolo[1,5-a]pyrimidine-3-carbonitrile]	138 mmHg
N#Cc1cnn2c1N(C(=O)CN1CCN(C(c3ccc(F)cc3)c3ccc(F)cc3)CC1)CC=C2c1cccc(C(F)(F)F)c1 [Example 40, 4-[[4-[Bis(4-fluorophenyl)methyl]-1-piperazinyl]acetyl]-4,5-dihydro-7-[3-(trifluoromethyl)phenyl]pyrazolo[1,5-a]pyrimidine-3-carbonitrile]	121 mmHg
C=CCN1CCN(CC(=O)N2CC=C(c3cccc(C(F)(F)F)c3)n3ncc(C#N)c32)CC1 [Example 47, 4,5-Dihydro-4-[[4-(2-propenyl)-1-piperazinyl]acetyl]-7-[3-(trifluoromethyl)phenyl]pyrazolo[1,5-a]pyrimidine-3-carbonitrile]	139 mmHg
CC(C)N1CCN(CC(=O)N2CC=C(c3cccc(C(F)(F)F)c3)n3ncc(C#N)c32)CC1 [Example 51, 4,5-Dihydro-4-[[4-(1-methylethyl)-1-piperazinyl]acetyl]-7-[3-(trifluoromethyl)phenyl]pyrazolo[1,5-a]pyrimidine-3-carbonitrile]	139 mmHg
N#Cc1cnn2c1N(C(=O)CN1CCN(C3CCC3)CC1)CC=C2c1cccc(C(F)(F)F)c1 [Example 52, 4-[(4-Cyclobutyl-1-piperazinyl)acetyl]-4,5-dihydro-7-[3-(trifluoromethyl)phenyl)pyrazolo[1,5-a]pyrimidine-3-carbonitrile]	124 mmHg

same assay, conditions: SHR, gavage, 100 mg/kg or less, two doses 24 h apart, measured at 28 hours; average MABP of rats used 160±1.5 mm; dihydrochloride, 100 mg/kg

Compound	MABP/mmHg (mean arterial blood pressure)
N#Cc1cnn2c1N(C(=O)CN1CCN(Cc3ccccc3)CC1)CC=C2c1cccc(C(F)(F)F)c1 [Example 78, 4,5-Dihydro-4-[[4-(phenylmethyl)-1-piperazinyl]acetyl]-7-[3-(trifluoromethyl)phenyl]pyroazolo[1,5-a]pyrimidine-3-carbonitrile, dihydrochloride]	137 mmHg

test system: Brain-Specific Receptors of Rats (3H-benzodiazepine binding); assay: Inhibition of the binding of 3H-benzodiazepine to brain-specific receptors of rats; design: species or system rat (Wistar strain, whole cortex); conditions: rat cortex P2 fraction, 3H-diazepam 1.5 nM or 3H-flunitrazepam 1.0 nM
Source text: Another test utilized for the determination of anxiolytic activity is the measurement of the ability of a test compound to inhibit the binding of tritiated benzodiazepines to brain-specific receptors of mammals. A modification of the method described by R. F. Squires, et al., Nature, 266 (21), 732 (Apr., 1977) and H. Mohler, et al., Science, 198, 849 (1977) was employed. […] The test compounds were solubilized in dimethylformamide, acetic acid, ethanol or hydrochloric acid. […] (1) resuspended in twice the original volume in hypotonic 50 mM Tris.HCl (pH 7.4), or (2) resuspended in one-half the original volume in hypotonic 10 mM Tris.HCl (pH 7.4) and frozen (-20° C.) until time. of use. Frozen P2 preparations were thawed and resuspended in four times the original homogenizing volume at time of assay. […] Incubation for 30 minutes proceeded in ice and was terminated by filtration, under vacuum, through glass fiber filters. The filters were washed twice with 5 ml of ice-cold 50 mM Tris.HCl (pH 7.4) and placed in scintillation vials. After drying at 50°-60° C. for 30 minutes, 10 ml of diluent was added and the radioactivity determined in a scintillation counter. Inhibition of binding was calculated by the difference between total binding and binding in the presence of test compound, divided by the total binding, X 100.

Compound	% Inhibition (3H-benzodiazepine binding)
CCCCCCN(CCCCCC)CC(=O)N1CC=C(c2cccc(C(F)(F)F)c2)n2ncc(C#N)c21 [4-[(Dihexylamino)acetyl]-4,5-dihydro-7-[3-(trifluoromethyl)phenyl]pyrazolo[1,5-a]pyrimidine-3-carbonitrile]	24%
CN1CCN(CC(=O)N2CC=C(c3cccc(C(F)(F)F)c3)n3ncc(C#N)c32)CC1 [Example 16, 4,5-Dihydro-4-[(4-methyl-1-piperazinyl)acetyl]-7-[3-(trifluoromethyl)phenyl]pyrazolo[1,5-a]pyrimidine-3-carbonitrile]	41%
N#Cc1cnn2c1N(C(=O)CN1CCN(CC(=O)N3CCCC3)CC1)CC=C2c1cccc(C(F)(F)F)c1 [Example 38, 4,5-Dihydro-4-[[4-[2-oxo-2-(1-pyrrolidinyl)ethyl]-1-piperazinyl]acetyl]-7-[3-(trifluoromethyl)phenyl]pyrazolo[1,5-a]pyrimidine-3-carbonitrile]	33%
CCOC(=O)N1CCN(CC(=O)N2CC=C(c3cccc(C(F)(F)F)c3)n3ncc(C#N)c32)CC1 [Example 42]	45%
Cl.N#Cc1cnn2c1N(C(=O)CN1CCN(c3ccc(Cl)c(Cl)c3)CC1)CC=C2c1cccc(C(F)(F)F)c1 [Example 82, 4-[[4-(3,4-Dichlorophenyl)-1-piperazinyl]acetyl]-4,5-dihydro-7-[3-(trifluoromethyl)phenyl]pyrazolo[1,5-a]pyrimidine-3-carbonitrile, hydrochloride]	12%
N#Cc1cnn2c1N(C(=O)CN1CCN(CCC3CCCCC3)CC1)CC=C2c1cccc(C(F)(F)F)c1 [Example 86, 4-[[4-(2-(Cyclohexylethyl)-1-piperazinyl]acetyl]-4,5-dihydro-7-[3-(trifluoromethyl)phenyl]pyrazolo[1,5-a]pyrimidine-3-carbonitrile, dihydrochloride]	14%
Cl.Cl.N#Cc1cnn2c1N(C(=O)CN1CCN(Cc3ccccc3)CC1)CCC2c1cccc(C(F)(F)F)c1 (stereo not shown) [Example 89, 4,5,6,7-Tetrahydro-4-[[4-(phenylmethyl)-1-piperazinyl]acetyl]-7-[3-(trifluoromethyl)phenyl]pyrazolo[1,5-a]pyrimidine-3-carbonitrile, dihydrochloride]	12%
N#Cc1cnn2c1N(C(=O)CN1CCN(C(=O)c3ccco3)CC1)CC=C2c1cccc(C(F)(F)F)c1 [Example 96, 4-[[4-(2-Furanylcarbonyl)-1-piperazinyl]acetyl]-4.5-dihydro-7-[(3-trifluoromethyl)phenyl]pyrazolo[1,5-a]pyrimidine-3-carbonitrile, hydrochloride]	12%
N#Cc1cnn2c1N(C(=O)CN1CCNCC1)CC=C2c1cccc(C(F)(F)F)c1 [Example 98, 4.5-Dihydro-4-(1-piperazinylacetyl)-7-[3-(trifluoromethyl)phenyl]pyrazolo[1,5-a]pyrimidine-3-carbonitrile]	25%
